Experimental data as given in the NIST ThermoML archive (doi:10.1016/j.jct.2019.06.009).
Numbers after ± are expanded uncertainties.

Experiments:
[1] = Crystal; DSC
[2] = Molar enthalpy of transition or fusion; conditions: Crystal; DSC

Triple point temperature [1]: 400.19 ± 2.1 K
Molar enthalpy of transition or fusion [2]: 2.53 ± 0.239 kcal/mol
Structure (SMILES): C=NCC#N [methyleneaminoacetonitrile]
